Test results from patent publication US8093248B2, “Compounds useful for the treatment of conditions associated with weight gain” (AstraZeneca AB (PUBL), priority 2007, dated 2012).

Assays:
JEG-3 cells [1] = assay: [3H]-thymidine incorporation in JEG-3 cells (JEG-3 protocol); format: cell-based; settings: JEG-3 choriocarcinoma cell line, FIG. 6
Experimental: In JEG-3 cells (choriocarcinoma cell line) leptin is able to stimulate proliferation up to 3 fold (Biol. Reprod. (2007) 76: 203-10). […] The radioactivity incorporated by the cells is an index of their proliferative activity and is measured in counts per minute (CPM) with a liquid scintillation beta counter.
This finding can be applied to test whether a compound is able to either reproduce the effect of leptin on cell proliferation (leptin receptor agonist mimetic) (i.e., a given compound will cause an increase in incorporated [^3H]-Thymidine by the cells) or to inhibit the effect of leptin (antagonistic effect) by preventing the leptin-mediated increase in [^3H]-thymidine incorporation.

JEG-3 cells [2] = settings: Biol. Reprod. (2007) 76: 203-10; cited from earlier work

EC50 (JEG-3 cells [1]; read-out: EC50 of concentration-dependent increase in [3H]-thymidine incorporation): 2.1 nM
Substance: leptin: hormone synthesized in fat cells that is believed to act in the hypothalamus to reduce food intake and body weight
concentration of maximal effect on [3H]-thymidine incorporation (JEG-3 cells [1]): 100 nM
stimulation of proliferation (JEG-3 cells [2]): up to 3 fold
